In patent US11236046B2, “Substituted heterocyclic sulfonamide compounds useful as TRPA1 modulators” (Genentech, Inc., priority 2013, dated 2022):

Target: human TRPA1 (Homo sapiens (Human), UniProt O75762)
Experiment: FLIPR Tetra calcium influx assay, block of cinnamaldehyde-induced calcium influx in CHO cells expressing TRPA1 (human)
Assay type: cell-based
Conditions: 20 min compound incubation, 75 uM cinnamaldehyde (~EC80), Hill coefficient fixed to 1.5, read-out: hTRPA1 AUC IC50
Outline: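 CHO cells loaded with calcium dye, preincubated with compounds 20 min at room temperature in HBSS/20 mM HEPES pH 7.4 with 0.02% BSA. Channels activated by ~EC80 cinnamaldehyde (75 uM human, 45 uM rat); block of calcium influx read on FLIPR Tetra, IC50 fitted with fixed Hill coefficient.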

human TRPA1, sequence (O75762 whole entry): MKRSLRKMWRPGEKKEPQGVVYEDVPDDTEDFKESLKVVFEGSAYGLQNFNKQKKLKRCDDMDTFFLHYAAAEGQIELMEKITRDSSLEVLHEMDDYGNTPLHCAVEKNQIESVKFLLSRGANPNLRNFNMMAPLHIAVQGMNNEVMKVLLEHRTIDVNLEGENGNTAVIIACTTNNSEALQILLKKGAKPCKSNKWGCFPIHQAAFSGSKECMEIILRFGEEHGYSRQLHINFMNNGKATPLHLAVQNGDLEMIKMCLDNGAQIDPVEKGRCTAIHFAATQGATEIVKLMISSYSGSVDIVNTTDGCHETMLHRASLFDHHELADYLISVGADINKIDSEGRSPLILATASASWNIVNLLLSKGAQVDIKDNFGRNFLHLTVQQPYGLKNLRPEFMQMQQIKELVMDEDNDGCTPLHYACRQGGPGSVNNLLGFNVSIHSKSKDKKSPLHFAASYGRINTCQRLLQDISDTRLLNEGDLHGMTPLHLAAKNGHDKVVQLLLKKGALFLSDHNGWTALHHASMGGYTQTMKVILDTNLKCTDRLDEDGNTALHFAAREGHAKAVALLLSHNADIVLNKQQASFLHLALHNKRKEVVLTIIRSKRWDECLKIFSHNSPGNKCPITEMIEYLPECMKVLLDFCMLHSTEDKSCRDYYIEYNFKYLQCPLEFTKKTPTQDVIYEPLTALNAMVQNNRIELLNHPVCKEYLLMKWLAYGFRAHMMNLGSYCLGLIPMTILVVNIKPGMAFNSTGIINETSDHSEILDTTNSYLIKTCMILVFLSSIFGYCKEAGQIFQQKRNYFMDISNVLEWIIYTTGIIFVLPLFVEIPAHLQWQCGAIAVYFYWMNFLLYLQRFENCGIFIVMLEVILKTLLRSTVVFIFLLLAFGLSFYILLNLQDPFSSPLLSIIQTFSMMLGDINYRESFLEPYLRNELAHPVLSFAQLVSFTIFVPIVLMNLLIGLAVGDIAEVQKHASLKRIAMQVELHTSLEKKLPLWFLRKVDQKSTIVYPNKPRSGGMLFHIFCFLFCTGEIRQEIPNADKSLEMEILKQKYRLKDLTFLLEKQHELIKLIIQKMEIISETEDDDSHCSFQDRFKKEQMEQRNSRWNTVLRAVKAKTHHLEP

`O=C(NCc1cc(-c2ccc(C(F)(F)F)c(F)c2)ncn1)[C@@H]1C[C@@H](F)CN1S(=O)(=O)c1ccc(F)cc1` [Example 114, (2S,4R)-4-fluoro-N-([6-[3-fluoro-4-(trifluoromethyl)phenyl]pyrimidin-4-yl]methyl)-1-[(4-fluorobenzene)sulfonyl]pyrrolidine-2-carboxamide] and `O=C(NCc1cc(-c2ccc(C(F)(F)F)nc2)c(F)cn1)[C@@H]1C[C@@H](F)CN1S(=O)(=O)c1ccc(F)cc1` [Example 140, (2S,4R)-4-fluoro-N-((5′-fluoro-6-(trifluoromethyl)-3,4′-bipyridin-2′-yl)methyl)-1-(4-fluorophenylsulfonyl)pyrrolidine-2-carboxamide] are within 1.5-fold of each other in IC50: 0.026 µM for the first, 0.02 µM for the second.

Compared with `O=C(NCc1cc(-c2ccc(C(F)(F)F)nc2)c(F)cn1)[C@@H]1[C@@H](F)CCN1S(=O)(=O)c1ccc(F)cc1` [Example 115, (2R,3S)-3-fluoro-1-(4-fluorophenyl)sulfonyl-N-[[5-fluoro-4-[6-(trifluoromethyl)-3-pyridyl]-2-pyridyl]methyl]pyrrolidine-2-carboxamide], `O=C(NCc1cc(-c2ccc(C(F)(F)F)nc2)ncn1)[C@@H]1[C@@H](F)CCN1S(=O)(=O)c1ccc(F)cc1` [Example 136, (2R,3S)-3-fluoro-1-(4-fluorophenylsulfonyl)-N-((6-(6-(trifluoromethyl)pyridin-3-yl)pyrimidin-4-yl)methyl)pyrrolidine-2-carboxamide] is 1.6-fold higher in IC50: 0.013 µM for the first, 0.021 µM for the second. The first is the more potent here.

Going from `COc1cc(CNC(=O)[C@@H]2C[C@@H](F)CN2S(=O)(=O)c2ccc(F)cc2)cc(-c2ccc(C(F)(F)F)nc2)c1` [Example 116, (2S,4R)-4-fluoro-1-(4-fluorophenyl)sulfonyl-N-[[3-methoxy-5-[6-(trifluoromethyl)-3-pyridyl]phenyl]methyl]pyrrolidine-2-carboxamide] to `O=C(NCc1cc(F)cc(-c2ccc(C(F)(F)F)nc2)c1)[C@@H]1C[C@@H](F)CN1S(=O)(=O)c1ccc(F)cc1` [Example 139, (2S,4R)-4-fluoro-1-(4-fluorophenyl)sulfonyl-N-[[3-fluoro-5-[6-(trifluoromethyl)-3-pyridyl]phenyl]methyl]pyrrolidine-2-carboxamide], the IC50 falls from 0.047 µM to 0.016 µM (2.9-fold).

Compared with `O=C(NCc1ncc(F)c(-c2ccc(C(F)(F)F)nc2)c1F)[C@@H]1C[C@@H](F)CN1S(=O)(=O)c1ccc(F)cc1` [Example 117, (2S,4R)—N-([3,5-difluoro-4-[6-(trifluoromethyl)pyridin-3-yl]pyridin-2-yl]methyl)-4-fluoro-1-[(4-fluorobenzene)sulfonyl]pyrrolidine-2-carboxamide], `O=C(NCc1cc(-c2ccc(C(F)(F)F)nc2)ncc1F)[C@@H]1C[C@@H](F)CN1S(=O)(=O)c1ccc(F)cc1` [Example 141, (2S,4R)-4-fluoro-N-((5-fluoro-6′-(trifluoromethyl)-2,3′-bipyridin-4-yl)methyl)-1-(4-fluorophenylsulfonyl)pyrrolidine-2-carboxamide] is 3.3-fold lower in IC50: 0.224 µM for the first, 0.068 µM for the second.

`COc1cc(-c2ccc(C(F)(F)F)nc2)cc(CNC(=O)[C@@H]2C[C@@H](F)CN2S(=O)(=O)c2ccc(F)cc2)n1` [Example 118, (2S,4R)-4-fluoro-1-[(4-fluorobenzene)sulfonyl]-N-([6-methoxy-4-[6-(trifluoromethyl)pyridin-3-yl]pyridin-2-yl]methyl)pyrrolidine-2-carboxamide] and `O=C(NCc1cc(-c2ccc(C(F)(F)F)nc2)cc(F)n1)[C@@H]1C[C@@H](F)CN1S(=O)(=O)c1ccc(F)cc1` [Example 120, (2S,4R)-4-fluoro-1-(4-fluorophenyl)sulfonyl-N-[[6-fluoro-4-[6-(trifluoromethyl)-3-pyridyl]-2-pyridyl]methyl]pyrrolidine-2-carboxamide] are within 1.5-fold of each other in IC50: 0.037 µM for the first, 0.049 µM for the second.

Going from `O=C(NCc1cc(F)nc(-c2ccc(C(F)(F)F)nc2)c1)[C@@H]1C[C@@H](F)CN1S(=O)(=O)c1ccc(F)cc1` [Example 119, (2S,4R)-4-fluoro-N-([2-fluoro-6-[6-(trifluoromethyl)pyridin-3-yl]pyridin-4-yl]methyl)-1-[(4-fluorobenzene)sulfonyl]pyrrolidine-2-carboxamide] to `COc1nc(CNC(=O)[C@@H]2C[C@@H](F)CN2S(=O)(=O)c2ccc(F)cc2)cc(-c2ccc(C(F)(F)F)nc2)n1` [Example 127, (2S,4R)-4-fluoro-1-[(4-fluorobenzene)sulfonyl]-N-([2-methoxy-6-[6-(trifluoromethyl)pyridin-3-yl]pyrimidin-4-yl]methyl)pyrrolidine-2-carboxamide], the IC50 rises from 0.052 µM to 0.097 µM (1.9-fold).

Going from `O=C(NCc1cc(N2C3CCC2CC(C(F)(F)F)C3)c(F)cn1)[C@@H]1C[C@@H](F)CN1S(=O)(=O)c1ccc(F)cc1` (stereo partly drawn) [Example 121, (2S,4R)-4-fluoro-N-([5-fluoro-4-[3-(trifluoromethyl)-8-azabicyclo[3.2.1]octan-8-yl]pyridin-2-yl]methyl)-1-[(4-fluorobenzene)sulfonyl]pyrrolidine-2-carboxamide] to `O=C(NCc1cc(N2CCC(C(F)(F)F)CC2)c(C(F)(F)F)cn1)[C@@H]1C[C@@H](F)CN1S(=O)(=O)c1ccc(F)cc1` [Example 130, (2S,4R)-4-fluoro-1-(4-fluorophenyl)sulfonyl-N-[[5-(trifluoromethyl)-4-[4-(trifluoromethyl)-1-piperidyl]-2-pyridyl]methyl]pyrrolidine-2-carboxamide], the IC50 falls from 0.741 µM to 0.052 µM (14-fold).

Compared with `O=C(NCc1cc(F)cc(-c2cnc(C(F)(F)F)cn2)c1)[C@@H]1C[C@@H](F)CN1S(=O)(=O)c1ccc(F)cc1` [Example 122, (2S,4R)-4-fluoro-1-(4-fluorophenyl)sulfonyl-N-[[3-fluoro-5-[5-(trifluoromethyl)pyrazin-2-yl]phenyl]methyl]pyrrolidine-2-carboxamide], `O=C(NCc1cc(-c2ccc(C(F)(F)F)cn2)ccn1)[C@@H]1C[C@@H](F)CN1S(=O)(=O)c1ccc(F)cc1` [Example 131, (2S,4R)-4-fluoro-1-(4-fluorophenyl)sulfonyl-N-[[4-[5-(trifluoromethyl)-2-pyridyl]-2-pyridyl]methyl]pyrrolidine-2-carboxamide] is 7.3-fold higher in IC50: 0.014 µM for the first, 0.102 µM for the second. The first is the more potent here.

Going from `O=C(NCc1cc(-c2ccc(C(F)(F)F)nc2)ncn1)[C@@H]1C[C@H]2C[C@H]2N1S(=O)(=O)c1ccc(F)cc1` [Example 123, (1R,3S,5R)-2-(4-fluorophenyl)sulfonyl-N-[[6-[6-(trifluoromethyl)-3-pyridyl]pyrimidin-4-yl]methyl]-2-azabicyclo[3.1.0]hexane-3-carboxamide] to `C[C@@]1(C(=O)NCc2cc(-c3ccc(C(F)(F)F)nc3)c(F)cn2)C[C@@H](F)CN1S(=O)(=O)c1ccc(F)cc1` [Example 126, (2S,4R)-4-fluoro-1-(4-fluorophenyl)sulfonyl-N-[[5-fluoro-4-[6-(trifluoromethyl)-3-pyridyl]-2-pyridyl]methyl]-2-methyl-pyrrolidine-2-carboxamide], the IC50 falls from 0.156 µM to 0.025 µM (6.2-fold). The second is the more potent here.

First: COc1nn(-c2ccc(C(F)(F)F)nc2)cc1CNC(=O)[C@]1(C)C[C@@H](F)CN1S(=O)(=O)c1ccc(F)cc1 [Example 125, (2S,4R)-4-fluoro-1-[(4-fluorobenzene)sulfonyl]-N-([3-methoxy-1-[6-(trifluoromethyl)pyridin-3-yl]-1H-pyrazol-4-yl]methyl)-2-methylpyrrolidine-2-carboxamide]
Second: COc1nn(-c2cnc(C(F)(F)F)nc2)cc1CNC(=O)[C@@H]1C[C@@H](F)CN1S(=O)(=O)c1ccc(F)cc1 [Example 132, (2S,4R)-4-fluoro-1-[(4-fluorobenzene)sulfonyl]-N-([3-methoxy-1-[2-(trifluoromethyl)pyrimidin-5-yl]-1H-pyrazol-4-yl]methyl)pyrrolidine-2-carboxamide]
The IC50 of the first is 14-fold lower: 0.009 µM for the first, 0.126 µM for the second. The first is the more potent here.

Compared with `O=C(NCc1cc(N2CCC(F)(F)CC2)c(F)cn1)[C@@H]1C[C@@H](F)CN1S(=O)(=O)c1ccc(F)cc1` [Example 128, (2S,4R)—N-[[4-(4,4-difluoro-1-piperidyl)-5-fluoro-2-pyridyl]methyl]-4-fluoro-1-(4-fluorophenyl)sulfonyl-pyrrolidine-2-carboxamide], `O=C(NCc1cc(N2CCC3(CC2)CC3)c(F)cn1)[C@@H]1C[C@@H](F)CN1S(=O)(=O)c1ccc(F)cc1` [Example 129, (2S,4R)—N-[[4-(6-azaspiro[2.5]octan-6-yl)-5-fluoro-2-pyridyl]methyl]-4-fluoro-1-(4-fluorophenyl)sulfonyl-pyrrolidine-2-carboxamide] is 4.1-fold lower in IC50: 0.404 µM for the first, 0.099 µM for the second.

`O=C(NCc1cc(C23CCC(C(F)F)(CC2)CC3)ncn1)[C@@H]1C[C@@H](F)CN1S(=O)(=O)c1ccc(F)cc1` [Example 133, (2S,4R)—N-[[6-[4-(difluoromethyl)-1-bicyclo[2.2.2]octanyl]pyrimidin-4-yl]methyl]-4-fluoro-1-(4-fluorophenyl)sulfonyl-pyrrolidine-2-carboxamide] and `O=C(NCc1cn(-c2ccc(C(F)(F)F)cc2)nc1Cl)[C@@H]1C[C@@H](F)CN1S(=O)(=O)c1ccc(F)cc1` [Example 137, (2S,4R)—N-([3-chloro-1-[4-(trifluoromethyl)phenyl]-1H-pyrazol-4-yl]methyl)-4-fluoro-1-[(4-fluorobenzene)sulfonyl]pyrrolidine-2-carboxamide] are within 1.5-fold of each other in IC50: 0.059 µM for the first, 0.078 µM for the second.

First: COc1nn(-c2ccc(C(F)(F)F)cc2)cc1CNC(=O)[C@@H]1C[C@@H](F)CN1S(=O)(=O)c1cccc(F)c1 [Example 134, (2S,4R)-4-fluoro-1-[(3-fluorobenzene)sulfonyl]-N-([3-methoxy-1-[4-(trifluoromethyl)phenyl]-1H-pyrazol-4-yl]methyl)pyrrolidine-2-carboxamide]
Second: COc1nn(-c2ccc(C(F)(F)F)cc2)cc1CNC(=O)[C@@H]1C[C@@H](F)CN1S(=O)(=O)c1ccc(F)cc1 [Example 135, (2S,4R)-4-fluoro-1-[(4-fluorobenzene)sulfonyl]-N-([3-methoxy-1-[4-(trifluoromethyl)phenyl]-1H-pyrazol-4-yl]methyl)pyrrolidine-2-carboxamide]
The IC50 of the first is 2.1-fold higher: 0.023 µM for the first, 0.011 µM for the second.
